# Data as given in patent US8722745B2, “Sulfur-containing compound, method of preparation and pharmaceutical uses thereof” (National Sun Yat-Sen University, priority 2007, dated 2014).
# Columns and labels:
# cyclooxygenase-2 = experiment: Protein expression of cyclooxygenase-2 in LPS-stimulated RAW 264.7 macrophages (Western blot); format: cell-based, mouse
# Protocol: (§1) A mouse macrophage cell line, RAW 264.7, purchased from the American Type Culture Collection (ATCC , No TIB-71) was chosen in the in vitro model. The cells were cultured in DMEM (Dulcbecco/s Modified Eagle medium) containing 10% fetal bovine serum (FBS) and penicillin G (100 U/mL) and streptomycin (100 μg/mL) at 37° C. and 5% CO2. When reaching 80% confluence, the cells were subcultured with trypsin. The cells were subjected to an anti-inflammation assay after subcultured for 36 hours. 3×10^6 RAW264.7 cells were cultured in a 10-cm culture dish and administered with lipopolysaccharide (LPS, 0.01 μg/mL; Sigma L2654). After 16 hours, the cells were collected. […]
# (§2) The collected RAW264.7 cells were dissolved with 200 μL of 4° C. lysis buffer (50 mM Tris [pH 7.5], 150 mM NaCl, 1% TritonX-100, 0.1 mM EDTA, 0.1 mM EGTA, 10 μg PMSF, 1 μg/mL aprotinin, 20 mM NaF, and 0.2 mM Na3VO4). […] The supernatant was assayed with Bio-Rad DC protein assay kit (Bio-Rad Laboratories, Hercules, Calif., USA) and the absorbance was read with an ELISA reader (Thermo Electron Corporation, USA) for estimating the protein contents. […] After washed with TTBS for three times, an enhanced chemiluminescence detection kit was used for reading with the PVDF membrane and exposed with an X-ray film (Kodak X-OMAT LS, Kodak, Rochester, N.Y., USA) for detecting the protein expression. […]
# [1] = system: inducible nitric oxide synthase; experiment: Protein expression of inducible nitric oxide synthase in LPS-stimulated RAW 264.7 macrophages (Western blot); format: cell-based, mouse
# Protocol: as §1, §2
# [2] = system: neointimal proliferation of the carotid artery; experiment: Atherosclerosis model in rat, balloon-induced angioplasty of carotid artery; format: in vivo
# Protocol: The operation was performed according to the references of Berger et al (Atherosclerosis 175:229-234, 2004) and Chen et al (Naunyn Schmiedebergs Arch Pharmacol 368:127-133, 2003). The animals were anesthetized with 2.5% isoflurane (mixed air and oxygen of 1:1) with a 2F probe balloon catheter. The catheter was pre-filled with saline solution and positioned from the external carotid artery of the right neck into the right common carotid artery. When the catheter entered about 1.5 cm of the right common carotid artery, the balloon was inflated and rubbed forward and backward three times. Then, the catheter was removed and the external carotid artery was ligated and the incision was sutured. […] The samples were observed under an optical microscopy and photoed. The thickness of neointimal proliferation was determined. The right side of each rat was taken as the experiment group and the left side was as the control group.
# In the experiment group, the compound represented by formula 3 was administered.
# multiple sclerosis (EAE) = experiment: Multiple sclerosis (EAE) animal model, neural function score; format: in vivo
# Protocol: Female Lewis rats weighted between 280 to 300 g were used in the multiple sclerosis (MS, also called Encephalomyelitis; EAE) model (Boulerne et al, J Neurosci. 2002; 22:123-32, 2004). The animals were anesthetized with 2.5% isoflurane, and 50 μL of Complete Freund's Adjuvant (Sigma) containing 1 mg inactivated Mycobacterium tuberculosis H37Ra and 50 μg guinea pig myelin basic protein (MBP) was subcutaneous injected from the posterior paw for 100% immunizing In the control group, the rats were injected with Freund's complete adjuvant containing inactivated Mycobacterium tuberculosis H37Ra and without guinea pig myelin basic protein. The ill was observed on day 11 to 12 after immunization, and reached the peak on day 14 to 15.
# The neural function was assessed on day 15. The scores represents: 0: no clinical symptom; 1: function loss in the tail; 2: partial paralysis in the posterior limbs; 3: complete paralysis in the posterior limbs; 4: paralysis in the four limbs; 5: complete paralysis in the whole body; 6: death (Liu et al. J Neuroimmunol. 2003; 139:27-35, 1998).
# The rats were divided into four groups, and each group containing four animals: • Control group: Rats were subcutaneous injected from the posterior paw with Freund's complete adjuvant containing inactivated Mycobacterium tuberculosis H37Ra and without guinea pig myelin basic protein. 20 μL of normal saline was administered through the intrathecal catheter twice a day for five days from day 7. • Multiple sclerosis group: Rats were subcutaneous injected from the posterior paw with Freund's complete adjuvant containing inactivated Mycobacterium tuberculosis H37Ra and guinea pig myelin basic protein. 20 μL of normal saline was administered through the intrathecal catheter twice a day for five days from day 7. • Multiple sclerosis with treatment group: Rats were subcutaneous injected from the posterior paw with Freund's complete adjuvant containing inactivated Mycobacterium tuberculosis H37Ra and guinea pig myelin basic protein. […]
# [3] = system: thermal hyperalgesia after sciatic nerve chronic constriction injury; experiment: Neuropathic pain model, sciatic nerve chronic constriction injury, thermal hyperalgesia; format: in vivo, rat
# Protocol: The operation was performed according to the description of Wen et al, Brain Res 963:1-7, 2003. The dura mater of male Wistar rats was opened near the foramen magnum and planted with an 8.5-cm PE tube (outer diameter: 0.014 inches, inner diameter: 0.008 inches). The drugs worked near the lumbar, and the end of injection was fixed on the head. Animals those had deficient in motor or blood in the intrathecal catheter were abandoned.
# The model was established similar to the sciatic nerve chronic constriction injury (CCI) established by Bennett and Xie (Pain 33:87-107, 1988). 4-O cat cut line was used to tie four nodes on the sciatic nerve. After one week, the behavior of thermal hyperalgesia was stimulated. The behavior of thermal hyperalgesia was assayed similar to the method established by Hargreaves et al (Pain 32:77-88, 1988) and recorded with an analgesiometer (IITC Inc., Woodland Hills, Calif., USA) for assessing the effect of the compound represented by formula 3 on neuropathic pain relief.
# MPE(%)=(latency after drug administered−basal latency)/(30 seconds−basal latency)×100%
# If a higher MPE was obtained, the effect of pain relief was better, and the maximum value of MPE was 100.
# β-actin = experiment: Protein expression of β-actin (internal control) in LPS-stimulated RAW 264.7 macrophages; format: cell-based, mouse; details: 50 μM compound
# Protocol: as §1, §2
smiles,measurement,setting,value
CC(=O)CCS(=O)(=O)CCO [formula 3],inhibition of cyclooxygenase-2 of macrophages,"cyclooxygenase-2; 5 to 30 μM compound, LPS 0.01 μg/mL",significantly inhibits
same,IC50,"cyclooxygenase-2; RAW 264.7 macrophages stimulated by LPS 0.01 μg/mL, 16 hours, protein expression",32.1 ± 8.1 µM
same,inhibition of inducible nitric oxide synthase of macrophages,"[1]; 10 to 30 μM compound, LPS 0.01 μg/mL",significantly inhibits
same,IC50,"[1]; RAW 264.7 macrophages stimulated by LPS 0.01 μg/mL, 16 hours, protein expression, read-out: 50% inhibition concentration (IC50), inducible nitric oxide synthase",3.64 ± 0.28 µM
same,neointimal proliferation (preliminary result),[2]; administered once a day,significantly improved
same,"atherosclerosis, numeralized intima/media",[2]; hypodermic injection 3 mg/kg a day from day 10 to 24 after operation,improves atherosclerosis significantly
same,neointimal proliferation stimulated by balloon-induced angioplasty,"[2]; hypodermic injection 3 mg/kg a day from day 10 to 24 after operation, slices on day 24",improves the neointimal proliferation
same,"neural function score (0-6), multiple sclerosis with treatment group","multiple sclerosis (EAE); 10 μg/20 μL intrathecal twice a day for five days from day 7, assessed on day 15, female Lewis rats",0.5±0.3
same,progress of multiple sclerosis,multiple sclerosis (EAE); administered through the intrathecal catheter,significantly represses the progress of multiple sclerosis
same,"neural function score (0-6), normal rats with treatment group","multiple sclerosis (EAE); normal rats, 10 μg/20 μL intrathecal twice a day for five days from day 7",0
same,50% effective dose (ED50) calculated from MPE,"[3]; intrathecal injection, CCI rats, paw withdrawal latency",0.75 ± 0.05 µg
same,thermal hyperalgesia inhibition,"[3]; intrathecal injections of 0.1, 0.5, 1, or 5 μg",significant effect on thermal hyperalgesia inhibition
same,effect on protein expression of β-actin,β-actin,inhibits the protein expression of β-actin
